Laboratory results taken from the supplement of paper PMC10307832.

Each cell line was assayed with CC1CC(=O)N(C2=CN=C(N=C2N1C3CCCC3)NC4=C(C=C(C=C4)C(=O)NC5CCN(CC5)C)OC)C [NPK76-II-72-1] + CC(=O)Nc1cccc(-n2c(=O)n(C3CC3)c(=O)c3c(Nc4ccc(I)cc4F)n(C)c(=O)c(C)c32)c1 [Trametinib] (partner 0.02 µM) (assay: relative viability (nuclei count vs DMSO), 5 days (fraction); higher = more cells survive). Settings: first compound 0.01 µM.
How it was run: (§1)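 Lung cancer cell lines were pin-tool dosed in 1536-well plates on the day after seeding, with either a lone drug or a fixed anchor-drug dose plus five library-drug doses (not always all listed) in √10 steps. Nuclei were counted on 4× images after 5 days. Relative viability is the ratio of treated-well to vehicle-well nuclei counts, with each value a median of duplicate plates.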

Cell Line	relative viability
NCI-H3122	0.186
NCI-H1437	0.492
NCI-H1755	0.756
NCI-H2023	0.584
HCC-15	0.35
PC-14	0.741
EKVX	0.359
LC-2-ad	0.826
NCI-H1975	0.348
RERF-LC-KJ	0.874
NCI-H650	1.14
PC-3 [JPC-3]	0.701

Same assay, conditions: first compound 0.03162 µM

Cell Line	relative viability
NCI-H3122	0.216
NCI-H1437	0.533
NCI-H1755	0.752
NCI-H2023	0.645
HCC-15	0.329
PC-14	0.848
EKVX	0.32
LC-2-ad	0.934
NCI-H1975	0.329
RERF-LC-KJ	0.854
NCI-H650	0.996

Same assay, conditions: first compound 0.1 µM

Cell Line	relative viability
NCI-H3122	0.242
NCI-H1437	0.557
NCI-H1755	0.75
NCI-H2023	0.677
HCC-15	0.342
PC-14	0.698
EKVX	0.367
LC-2-ad	0.983
NCI-H1975	0.303
RERF-LC-KJ	0.838
NCI-H650	0.957
PC-3 [JPC-3]	0.705

Same assay, conditions: first compound 0.3162 µM

Cell Line	relative viability
NCI-H3122	0.261
NCI-H1437	0.53
NCI-H1755	0.752
NCI-H2023	0.556
HCC-15	0.357
PC-14	0.678
LC-2-ad	0.92
NCI-H1975	0.323
RERF-LC-KJ	0.809
NCI-H650	0.997
PC-3 [JPC-3]	0.737

Same assay, conditions: first compound 1 µM

Cell Line	relative viability
NCI-H3122	0.236
NCI-H1437	0.616
NCI-H1755	0.799
NCI-H2023	0.512
HCC-15	0.393
PC-14	0.798
EKVX	0.384
LC-2-ad	0.945
NCI-H1975	0.401
RERF-LC-KJ	0.946
NCI-H650	1.01
PC-3 [JPC-3]	0.703

The cell lines below were run with CC[C@@H]1C(=O)N(C)c2cnc(Nc3ccc(C(=O)NC4CCN(C)CC4)cc3OC)nc2N1C1CCCC1 [BI-2536] + C[C@@H](Oc1cc(-c2cnn(C3CCNCC3)c2)cnc1N)c1c(Cl)ccc(F)c1Cl [Crizotinib] (partner 1 µM) in the same assay as above. Settings: first compound 0.01 µM.
How it was run: as §1

Cell Line	relative viability
NCI-H3122	0.294
NCI-H1437	0.812
NCI-H1755	0.893
NCI-H2023	0.582
HCC-15	0.82
PC-14	0.852
EKVX	1.01
LC-2-ad	0.41
NCI-H1975	1.12
RERF-LC-KJ	0.894
NCI-H650	0.597
PC-3 [JPC-3]	1.04

Same assay, conditions: first compound 0.03162 µM

Cell Line	relative viability
NCI-H3122	0.272
NCI-H1437	0.593
NCI-H1755	0.751
NCI-H2023	0.493
HCC-15	0.64
PC-14	0.793
EKVX	0.745
LC-2-ad	0.272
NCI-H1975	0.504
RERF-LC-KJ	0.711
NCI-H650	0.347
PC-3 [JPC-3]	0.846

Same assay, conditions: first compound 0.1 µM

Cell Line	relative viability
NCI-H3122	0.242
NCI-H1437	0.418
NCI-H1755	0.594
NCI-H2023	0.346
HCC-15	0.426
PC-14	0.792
EKVX	1.07
LC-2-ad	0.205
NCI-H1975	0.595
RERF-LC-KJ	0.764
NCI-H650	0.271
PC-3 [JPC-3]	0.871

Same assay, conditions: first compound 0.3162 µM

Cell Line	relative viability
NCI-H3122	0.182
NCI-H1437	0.117
NCI-H1755	0.315
NCI-H2023	0.0851
HCC-15	0.134
PC-14	0.116
EKVX	0.217
LC-2-ad	0.217
NCI-H1975	0.185
RERF-LC-KJ	0.174
NCI-H650	0.21
PC-3 [JPC-3]	0.33

Same assay, conditions: first compound 1 µM

Cell Line	relative viability
NCI-H3122	0.199
NCI-H1437	0.116
NCI-H1755	0.25
NCI-H2023	0.0743
HCC-15	0.118
PC-14	0.0584
EKVX	0.147
LC-2-ad	0.286
NCI-H1975	0.166
RERF-LC-KJ	0.218
NCI-H650	0.17
PC-3 [JPC-3]	0.244

The cell lines below were run with CC1CC(=O)N(C2=CN=C(N=C2N1C3CCCC3)NC4=C(C=C(C=C4)C(=O)NC5CCN(CC5)C)OC)C [NPK76-II-72-1] + CC(C)C[C@H](NC(=O)[C@H](Cc1ccccc1)NC(=O)c1cnccn1)B(O)O [Bortezomib] (partner 0.002 µM) in the same assay as above. Settings: first compound 0.01 µM.
How it was run: as §1

Cell Line	relative viability
NCI-H3122	1
NCI-H1437	0.473
NCI-H1755	0.932
NCI-H2023	0.968
HCC-15	0.995
PC-14	0.809
EKVX	1.01
LC-2-ad	0.981
NCI-H1975	0.34
RERF-LC-KJ	1.11
NCI-H650	0.862
PC-3 [JPC-3]	0.83

Same assay, conditions: first compound 0.03162 µM

Cell Line	relative viability
NCI-H3122	1.01
NCI-H1437	0.445
NCI-H1755	0.898
NCI-H2023	1.09
HCC-15	1.11
PC-14	0.849
EKVX	0.998
LC-2-ad	1.04
NCI-H1975	0.37
RERF-LC-KJ	1.11
NCI-H650	0.678
PC-3 [JPC-3]	0.897

Same assay, conditions: first compound 0.1 µM

Cell Line	relative viability
NCI-H3122	0.935
NCI-H1437	0.425
NCI-H1755	0.95
NCI-H2023	1.15
HCC-15	1.05
PC-14	0.892
EKVX	1.03
LC-2-ad	0.926
NCI-H1975	0.292
RERF-LC-KJ	1.07
NCI-H650	0.729
PC-3 [JPC-3]	0.581

Same assay, conditions: first compound 0.3162 µM

Cell Line	relative viability
NCI-H3122	1.03
NCI-H1437	0.409
NCI-H1755	0.98
NCI-H2023	1.01
HCC-15	1.02
PC-14	0.839
EKVX	0.637
LC-2-ad	1.01
NCI-H1975	0.41
RERF-LC-KJ	0.916
PC-3 [JPC-3]	0.778

Same assay, conditions: first compound 1 µM

Cell Line	relative viability
NCI-H3122	1.02
NCI-H1437	0.494
NCI-H1755	1.08
NCI-H2023	1.23
HCC-15	1.02
PC-14	1.08
EKVX	1.04
LC-2-ad	1.07
NCI-H1975	0.402
RERF-LC-KJ	1.08
NCI-H650	1.02
PC-3 [JPC-3]	0.81

Each cell line was assayed with CC1CC(=O)N(C2=CN=C(N=C2N1C3CCCC3)NC4=C(C=C(C=C4)C(=O)NC5CCN(CC5)C)OC)C [NPK76-II-72-1] + Nc1ncn([C@H]2C[C@H](O)[C@@H](CO)O2)c(=O)n1 [Decitabine] (partner 2 µM) in the same assay as above. Settings: first compound 0.01 µM.
How it was run: as §1

Cell Line	relative viability
NCI-H3122	0.361
NCI-H1437	0.579
NCI-H1755	0.738
NCI-H2023	0.203
HCC-15	0.559
PC-14	0.206
EKVX	0.329
LC-2-ad	0.715
NCI-H1975	0.351
RERF-LC-KJ	0.783
NCI-H650	0.316
PC-3 [JPC-3]	0.811

Same assay, conditions: first compound 0.03162 µM

Cell Line	relative viability
NCI-H3122	0.431
NCI-H1437	0.523
NCI-H1755	0.712
NCI-H2023	0.218
HCC-15	0.675
PC-14	0.286
EKVX	0.353
LC-2-ad	0.774
NCI-H1975	0.375
RERF-LC-KJ	0.762
NCI-H650	0.33

Same assay, conditions: first compound 0.1 µM

Cell Line	relative viability
NCI-H3122	0.471
NCI-H1437	0.531
NCI-H1755	0.75
NCI-H2023	0.225
HCC-15	0.638
PC-14	0.226
EKVX	0.34
LC-2-ad	0.809
NCI-H1975	0.398
RERF-LC-KJ	0.82
NCI-H650	0.358
PC-3 [JPC-3]	0.882

Same assay, conditions: first compound 0.3162 µM

Cell Line	relative viability
NCI-H3122	0.424
NCI-H1437	0.558
NCI-H1755	0.735
NCI-H2023	0.215
HCC-15	0.682
PC-14	0.259
LC-2-ad	0.776
NCI-H1975	0.364
RERF-LC-KJ	0.617
NCI-H650	0.311
PC-3 [JPC-3]	0.878

Same assay, conditions: first compound 1 µM

Cell Line	relative viability
NCI-H3122	0.438
NCI-H1437	0.641
NCI-H1755	0.694
NCI-H2023	0.227
HCC-15	0.671
PC-14	0.222
EKVX	0.387
LC-2-ad	0.864
NCI-H1975	0.391
RERF-LC-KJ	0.699
NCI-H650	0.299
PC-3 [JPC-3]	0.95
